Data published in patent US20100069366A1, “ANTIBACTERIAL QUINOLINE DERIVATIVES” (JANSSEN-CILAG, priority 2006, published 2010).
Converted amounts (≈) assume the structure as drawn. Where two headings read alike, the source gives them in different places.

How the values were obtained:
Type in all cases: cell-based
[1] = system: Staphylococcus aureus (ATCC29213); assay: Microtitre plate assay, IC90 determination, STA 29213
Experimental: (§1) The bacteria used in this study were grown overnight in flasks containing 100 ml Mueller-Hinton Broth (Becton Dickinson—cat. no. 275730) in sterile de-ionized water, with shaking, at 37° C. Stocks (0.5 ml/tube) were stored at −70° C. until use. Bacteria titrations were performed in microtiter plates to detect the TCID50, in which the TCID50 represents the dilution that gives rise to bacterial growth in 50% of inoculated cultures.
(§2) In general, an inoculum level of approximately 100 TCID50 was used for susceptibility testing.
(§3) Flat-bottom, sterile 96-well plastic microtiter plates were filled with 180 μl of sterile deionized water, supplemented with 0.25% BSA. Subsequently, stock solutions (7.8× final test concentration) of compounds were added in 45 μl volumes in column 2 Serial five-fold dilutions (45 μl in […]) were made directly in the microtiter plates from column 2 to reach column 11. Untreated control samples with (column 1) and without (column 12) inoculum were included in each microtiter plate. Depending on the bacteria type, approximately 10 to 60 CFU per well of bacteria inoculum (100 TCID50), in a volume of 100 μl in 2.8× Mueller-Hinton broth medium, was added to the rows A to H, except column 12. The same volume of broth medium without inoculum was added to column 12 in row A to H. The cultures were incubated at 37° C. for 24 hours under a normal atmosphere (incubator with open air valve and continuous ventilation). At the end of incubation, one day after inoculation, the bacterial growth was quantitated fluorometrically. Therefore resazurin (0.6 mg/ml) was added in a volume of 20 μl to all wells 3 hours after inoculation, and the plates were re-incubated overnight. A change in colour from blue to pink indicated the growth of bacteria. The fluorescence was read in a computer-controlled fluorometer (Cytofluor Biosearch) at an excitation wavelength of 530 nm and an emission wavelength of 590 nm. The % growth inhibition achieved by the compounds was calculated according to standard methods.

[2] = system: Streptococcus pyogens (ATCC8668); assay: Microtitre plate assay, IC90 determination, SPY 8668
Experimental: as §1, §2, §3

[3] = system: Enterococcus faecalis (ATCC29212); assay: Microtitre plate assay, IC90 determination, EFA 29212
Experimental: as §1, §2, §3

[4] = system: Pseudomonas aeruginosa (ATCC27853); assay: Microtitre plate assay, IC90 determination, PAE 27853
Experimental: as §1, §2, §3

[5] = system: M. Smegmatis ATCC607; assay: In-vitro anti-bacterial activity against strain M. smegmatis ATCC607; details: for IC90: Mycolicibacterium smegmatis
Experimental: Flat-bottom, sterile 96-well plastic microtiter plates were filled with 180 μl of sterile deionized water, supplemented with 0.25% BSA. Subsequently, stock solutions (7.8× final test concentration) of compounds were added in 45 μl volumes to a series of duplicate wells in column 2 so as to allow evaluation of their effects on bacterial growth. Serial five-fold dilutions (45 μl in 180 μl) were made directly in the microtiter plates from column 2 to 11 using a customised robot system (Zymark Corp., Hopkinton, Mass.). Pipette tips were changed after every 3 dilutions to minimize pipetting errors with high hydrophobic compounds. Untreated control samples with (column 1) and without (column 12) inoculum were included in each microtiter plate. Approximately 250 CFU per well of bacteria inoculum, in a volume of 100 μl in 2.8× Mueller-Hinton broth medium, was added to the rows A to H, except column 12. The same volume of broth medium without inoculum was added to column 12 in row A to H. The cultures were incubated at 37° C. for 48 hours in a humidified 5% CO2 atmosphere (incubator with open air valve and continuous ventilation). At the end of incubation, two days after inoculation, the bacterial growth was quantitated fluorometrically. Therefore Alamar Blue (10×) was added to all wells in a volume of 20 μl and plates were incubated for another 2 hours at […]
The fluorescence was read in a computer-controlled fluorometer (Cytofluor, Biosearch) at an excitation wavelength of 530 nm and an emission wavelength of 590 nm (gain 30).

[6] = system: Streptococcus pneumoniae (ATCC6305); assay: Microtitre plate assay, IC90 determination, SPN 6305; details: 90% inhibitory concentration for bacterial growth, resazurin
Experimental: as §1, §2, §3

[7] = Staphylococcus aureus ATCC29213, 90% inhibitory concentration for bacterial growth, resazurin
[8] = Streptococcus pyogens ATCC8668, 90% inhibitory concentration for bacterial growth, resazurin
[9] = Enterococcus faecalis ATCC29212, 90% inhibitory concentration for bacterial growth, resazurin
[10] = Pseudomonas aeruginosa ATCC27853, 90% inhibitory concentration for bacterial growth, resazurin
[11] = 90% inhibitory concentration for bacterial growth, 48 hours, Alamar Blue fluorescence
[12] = Streptococcus pneumoniae ATCC6305
[13] = Staphylococcus aureus ATCC29213, 90% inhibitory concentration for bacterial growth, resazurin, read-out: IC90 (μg/ml) STA 29213
[14] = Streptococcus pyogens ATCC8668, 90% inhibitory concentration for bacterial growth, resazurin, read-out: IC90 (μg/ml) SPY 8668
[15] = Enterococcus faecalis ATCC29212, 90% inhibitory concentration for bacterial growth, resazurin, read-out: IC90 (μg/ml) EFA 29212
[16] = Pseudomonas aeruginosa ATCC27853, 90% inhibitory concentration for bacterial growth, resazurin, read-out: IC90 (μg/ml) PAE 27853
[17] = ATCC607, 90% inhibitory concentration for bacterial growth, 48 hours, Alamar Blue fluorescence, read-out: M. smegmatis IC90
[18] = Streptococcus pneumoniae ATCC6305, read-out: IC90 (μg/ml) SPN 6305
[19] = Staphylococcus aureus, ATCC29213, read-out: IC90 (μg/ml) STA 29213
[20] = Streptococcus, ATCC8668, read-out: IC90 (μg/ml) SPY 8668
[21] = Pseudomonas aeruginosa, ATCC27853, read-out: IC90 (μg/ml) PAE 27853
[22] = ATCC607, 48 h, read-out: M. smegmatis IC90 (μg/ml), 90% inhibitory concentration for bacterial growth, Alamar Blue fluorescence
[23] = Streptococcus pneumoniae, ATCC6305, read-out: IC90 (μg/ml) SPN 6305, Streptococcus pneumoniae ATCC6305

Compound	IC90 (μg/ml) STA 29213 [1, 7]	M. smegmatis IC90 [5, 11]	IC90 (μg/ml) SPN 6305 [6, 12]	IC90 [1, 19]	IC90 [5, 22]	IC90 [6, 23]	further results
COc1nc2ccc(C)cc2cc1C(C(=CCN(C)C)c1ccccc1)c1ccccc1 (racemic) [Compound 30]	6.7 µg/mL (≈ 15.9 µM)	2.67 µg/mL	1.34 µg/mL (≈ 3.17 µM)				IC90 (μg/ml) SPY 8668 [2, 8]: 6.7 µg/mL (≈ 15.9 µM); IC90 (μg/ml) EFA 29212 [3, 9]: 11.91 µg/mL (≈ 28.2 µM); IC90 (μg/ml) PAE 27853 [4, 10]: 13.36 µg/mL (≈ 31.6 µM)
COc1nc2ccc(Br)cc2cc1C(/C(C)=C/CN(C)C)c1ccccc1 (stereo not shown) [Compound 14]							IC90 [1, 13]: 33.8 µg/mL (≈ 79.4 µM); IC90 [2, 14]: 26.8 µg/mL (≈ 63.1 µM); IC90 [3, 15]: 37.9 µg/mL (≈ 89.1 µM); IC90 [4, 16]: 37.9 µg/mL (≈ 89.1 µM); IC90 [5, 17]: 1.35 µg/mL (≈ 3.17 µM); IC90 [6, 18]: 1.35 µg/mL (≈ 3.17 µM)
COc1nc2ccc(Br)cc2cc1C(/C(=C/CN(C)C)c1ccsc1)c1ccccc1 (stereo not shown) [Compound 17]							IC90 [1, 13]: 15.6 µg/mL (≈ 31.6 µM); IC90 [2, 14]: 19.6 µg/mL (≈ 39.8 µM); IC90 [3, 15]: 39.2 µg/mL (≈ 79.4 µM); IC90 [4, 16]: 44 µg/mL (≈ 89.1 µM); IC90 [5, 17]: 39.2 µg/mL (≈ 79.4 µM); IC90 [6, 18]: 7.82 µg/mL (≈ 15.8 µM)
COc1nc2ccc(Br)cc2cc1C(/C(=C/C[N+](C)(C)C)c1cccc(F)c1)c1ccccc1 (stereo not shown) [Compound 23]				1.65 µg/mL	1.85 µg/mL	1.85 µg/mL	IC90 [2, 20]: 1.65 µg/mL; IC90 [4, 21]: 6.55 µg/mL
COc1nc2ccc(-c3ccccc3)cc2cc1C(/C(=C/CN(C)C)c1ccccc1)c1ccccc1 (stereo not shown) [Compound 11]				1.53 µg/mL (≈ 3.16 µM)	1.53 µg/mL (≈ 3.16 µM)	1.22 µg/mL (≈ 2.52 µM)	IC90 [2, 20]: 7.68 µg/mL (≈ 15.8 µM); IC90 ([3]; Enterococcus faecalis, ATCC29212, read-out: IC90 (μg/ml) EFA 29212): 15.3 µg/mL (≈ 31.6 µM); IC90 [4, 21]: 7.68 µg/mL (≈ 15.8 µM)
COc1nc2ccc(Br)cc2cc1C(=C(CCN(C)C)c1cccc(F)c1)c1ccccc1 [Compound 38]	10.08 µg/mL (≈ 19.9 µM)	8.01 µg/mL	8.01 µg/mL (≈ 15.8 µM)				IC90 (μg/ml) SPY 8668 [2, 8]: 3.58 µg/mL (≈ 7.08 µM); IC90 (μg/ml) EFA 29212 [3, 9]: 8.01 µg/mL (≈ 15.8 µM); IC90 (μg/ml) PAE 27853 [4, 10]: 8.99 µg/mL (≈ 17.8 µM)
COc1nc2ccc(Br)cc2cc1C(C(=CCN(C)C)c1cccc(F)c1)c1ccccc1 (racemic) [Compound 25]	22.58 µg/mL (≈ 44.7 µM)	40.15 µg/mL	8.01 µg/mL (≈ 15.8 µM)				IC90 (μg/ml) SPY 8668 [2, 8]: 17.93 µg/mL (≈ 35.5 µM); IC90 (μg/ml) EFA 29212 [3, 9]: 40.15 µg/mL (≈ 79.4 µM); IC90 (μg/ml) PAE 27853 [4, 10]: 40.15 µg/mL (≈ 79.4 µM)
COc1ccc(/C(CCCCN2CCCCC2)=C(/c2ccc(Cl)cc2)c2cnc3ccccc3c2)cc1 [Compound 53]							IC90 [1, 13]: 9.09 µg/mL (≈ 17.8 µM); IC90 [5, 17]: 2.03 µg/mL (≈ 3.97 µM); IC90 [6, 18]: 10.2 µg/mL (≈ 20 µM)
COc1nc2ccc(-c3cccnc3)cc2cc1C(=C(CCN(C)C)c1cccc2ccccc12)c1ccccc1 [Compound 41]	8.49 µg/mL (≈ 15.8 µM)	3.79 µg/mL	9.53 µg/mL (≈ 17.8 µM)				
CCN(C)CCC/C=C(\CCc1ccccc1)C(c1ccccc1)c1cc2cc(Br)ccc2nc1OC (stereo not shown) [Compound 61]							IC90 [1, 13]: 1.76 µg/mL (≈ 3.16 µM); IC90 [5, 17]: 1.76 µg/mL (≈ 3.16 µM); IC90 [6, 18]: 1.76 µg/mL (≈ 3.16 µM)
COc1ccc2nc(OC)c(C(C(=CCN(C)C)c3ccccc3)c3ccccc3)cc2c1 (racemic) [Compound 31]	39.09 µg/mL (≈ 89.1 µM)	6.95 µg/mL	7.8 µg/mL (≈ 17.8 µM)				
COc1nc2ccc(Br)cc2cc1C(=C(CCn1ccnc1)c1ccccc1)c1ccccc1 (single isomer, unassigned) [Compound 6]	10.18 µg/mL (≈ 19.9 µM)	10.18 µg/mL	10.18 µg/mL (≈ 19.9 µM)				
Clc1ccc(/C(CCCCN2CCCCC2)=C(/c2ccc(Cl)cc2)c2cnc3ccccc3c2)cc1 [Compound 52]				10.3 µg/mL (≈ 20 µM)	1.63 µg/mL (≈ 3.16 µM)	10.3 µg/mL (≈ 20 µM)	
N#Cc1ccc(/C(=C(\CCCCN2CCCCC2)c2ccc(Cl)cc2)c2cnc3ccccc3c2)cc1 [Compound 55]				8.02 µg/mL (≈ 15.8 µM)	8.02 µg/mL (≈ 15.8 µM)	10.1 µg/mL (≈ 20 µM)	
COc1nc2ccc(Br)cc2cc1/C(=C(/CCN(C)C)c1ccsc1)c1ccccc1 [Compound 18]							IC90 [1, 13]: 17.5 µg/mL (≈ 35.5 µM); IC90 [5, 17]: 9.85 µg/mL (≈ 20 µM); IC90 [6, 18]: 8.78 µg/mL (≈ 17.8 µM)
CSc1nc2ccc(Br)cc2cc1/C(=C(/CCN(C)C)c1ccccc1)c1ccccc1 [Compound 2]				7.98 µg/mL (≈ 15.8 µM)	1.59 µg/mL (≈ 3.16 µM)	1.59 µg/mL (≈ 3.16 µM)	
CCN(CC)CC=C(c1cccc2ccccc12)C(c1ccccc1)c1cc2cc(Br)ccc2nc1OC (racemic) [Compound 28]	8.96 µg/mL (≈ 15.8 µM)	1.79 µg/mL	2.01 µg/mL (≈ 3.55 µM)				
COc1nc2ccc(Br)cc2cc1C(=C(CCN1CCN(C)CC1)c1ccccc1)c1ccccc1 (mixture of isomers) [Compound 44]	10.82 µg/mL	4.31 µg/mL	10.82 µg/mL				
N#Cc1ccc(/C(=C(\CCCCN2CCCCC2)c2ccccc2)c2cnc3ccccc3c2)cc1 [Compound 54]				42 µg/mL (≈ 89.1 µM)	11.8 µg/mL (≈ 25.1 µM)	47.2 µg/mL (≈ 100 µM)	
CSc1nc2ccc(-c3ccccc3)cc2cc1C(=C(CCN(C)C)c1ccccc1)c1ccccc1 (single isomer, unassigned) [Compound 40]	19.93 µg/mL (≈ 39.8 µM)	1.58 µg/mL	3.98 µg/mL (≈ 7.95 µM)				IC90 (μg/ml) SPY 8668 [2, 8]: 7.94 µg/mL (≈ 15.9 µM); IC90 (μg/ml) EFA 29212 [3, 9]: 15.83 µg/mL (≈ 31.6 µM)
